From ChEMBL document CHEMBL4373717, “Coumarin-containing hybrids and their anticancer activities” (Eur J Med Chem, 2019)
≈ marks a conversion by molar mass, not a printed value.

Assays:
Assay type in all cases: functional, cell-based
MCF7 [1] = test: Cytotoxicity against human MCF7 cells assessed as reduction in cell viability after 48 hrs by MTT assay; conditions: MCF7, 48 h
MDA-MB-231 [2] = test: Cytotoxicity against human MDA-MB-231 cells assessed as reduction in cell viability after 24 hrs by MTT assay
A549 [3] = test: Anticancer activity against human A549 cells by MTT assay
K562 [4] = test: Anticancer activity against human K562 cells by MTT assay
MDA-MB-231 [5] = test: Anticancer activity against human MDA-MB-231 cells by MTT assay
HeLa [6] = test: Anticancer activity against human HeLa cells by MTT assay
A549 [7] = test: Cytotoxicity against human A549 cells assessed as reduction in cell viability after 68 hrs by MTT assay; conditions: A549, 68 h
K562 [8] = test: Cytotoxicity against human K562 cells assessed as reduction in cell viability after 68 hrs by MTT assay; conditions: K562, 68 h
HeLa [9] = test: Cytotoxicity against human HeLa cells assessed as reduction in cell viability after 68 hrs by MTT assay
MCF7 [10] = test: Cytotoxicity against human MCF7 cells assessed as reduction in cell viability after 68 hrs by MTT assay; conditions: MCF7, 68 h
769-P = test: Anticancer activity against human 769-P cells by MTT assay
HepG2 = test: Anticancer activity against human HepG2 cells by MTT assay
A549 [11] = test: Cytotoxicity against human A549 cells assessed as reduction in cell viability after 24 hrs by MTT assay; conditions: A549, 24 h

Work on `Cc1cc(-c2cc3cc(Cl)ccc3oc2=O)n(-c2nc(-c3ccccc3)cs2)n1` yielded an IC50 (MCF7 [1]) of 4.03 to 31.5 µM.
With `COC(=O)c1cccc(NC(=O)c2ccc(-n3cc(COc4cc(=O)oc5ccccc45)nn3)cc2)c1` the IC50 (MDA-MB-231 [2]; mda-mb-231) was 0.03 to 91.6 µM.
`Cc1nn(-c2ccc(Br)cc2)c(=O)n1-n1c(-c2cc3ccccc3oc2=O)cs/c1=N\c1ccccc1` gave an IC50 (A549 [3]) of 0.16 to 1.12 µg/mL, an IC50 (K562 [4]) of 0.16 to 1.12 µg/mL (≈ 0.28 to 1.96 µM) and an IC50 (MDA-MB-231 [5]) of 0.16 to 1.12 µg/mL. The IC50 (HeLa [6]) was 0.16 to 1.12 µg/mL (≈ 0.28 to 1.96 µM).
For `Cc1ccc(NC(=O)Nc2ccc(Cc3c(C)c4cc(C(C)(C)C)c(O)cc4oc3=O)cn2)cc1C`, the IC50 (A549 [7]) was 1.66 to 19.4 µM, the IC50 (K562 [8]) was 1.66 to 19.4 µM and the IC50 (HeLa [9]) was 1.66 to 19.4 µM. It also gave an IC50 (MCF7 [10]) of 1.66 to 19.4 µM.
`CC(=O)c1ccc(NC(=O)Nc2ccc(Cc3c(C)c4cc(C(C)(C)C)c(O)cc4oc3=O)cn2)cc1` gave an IC50 (A549 [7]) of 1.66 to 19.4 µM, an IC50 (K562 [8]) of 1.66 to 19.4 µM and an IC50 (HeLa [9]) of 1.66 to 19.4 µM. It also gave an IC50 (MCF7 [10]) of 1.66 to 19.4 µM.
For `Cc1cc(=O)oc2cc(OCc3cn(CCCCCCOc4ccc5ccc(=O)oc5c4)nn3)ccc12`, the IC50 (769-P) was 0.383 to 13.6 µM, the IC50 (HepG2) was 0.383 to 13.6 µM and the IC50 (MDA-MB-231 [5]) was 0.383 to 13.6 µM.
In the case of `Cc1c(Cc2ccc(NC(=O)Nc3ccc(F)c(Cl)c3)nc2)c(=O)oc2cc(O)c(C(C)(C)C)cc12`, the IC50 (A549 [7]) is reported as 1.66 to 19.4 µM, the IC50 (K562 [8]) is reported as 1.66 to 19.4 µM and the IC50 (HeLa [9]) is reported as 1.66 to 19.4 µM. The IC50 (MCF7 [10]) was 1.66 to 19.4 µM.
`O=C(Nc1ccc(Br)cc1)c1ccc(-n2cc(COc3cc(=O)oc4ccccc34)nn2)cc1` showed an IC50 (MDA-MB-231 [2]; mda-mb-231) of 0.03 to 91.6 µM.
`COc1ccc(-c2csc(-n3nc(C)cc3-c3cc4ccccc4oc3=O)n2)cc1` was tested, and the IC50 (MCF7 [1]) was 4.03 to 31.5 µM.
`Cc1c(Cc2ccc(NC(=O)Nc3ccccc3)nc2)c(=O)oc2cc(O)c(C(C)(C)C)cc12` showed an IC50 (A549 [7]) of 1.66 to 19.4 µM, an IC50 (K562 [8]) of 1.66 to 19.4 µM and an IC50 (HeLa [9]) of 1.66 to 19.4 µM. For the same compound, the IC50 (MCF7 [10]) was 1.66 to 19.4 µM.
`COc1cccc(-c2cc(-c3cc4ccccc4oc3=O)nc(Cc3ccc(F)cc3)n2)c1` gave an IC50 (A549 [11]) of 2.15 to 28.6 µM and an IC50 (MDA-MB-231 [2]; Homo sapiens, MDA-MB-231, 24 h) of 2.15 to 28.6 µM.
For `O=c1oc2ccccc2cc1-c1cc(-c2cccc(Br)c2)nc(Cc2ccc(F)cc2)n1`, the IC50 (A549 [11]) was 2.15 to 28.6 µM and the IC50 (MDA-MB-231 [2]; Homo sapiens, MDA-MB-231, 24 h) was 2.15 to 28.6 µM.
For `O=Cc1c(-c2cc3cc(Br)ccc3oc2=O)[nH]c2ccccc12`, the IC50 (MCF7 [1]) was 5.5 to 100 µM.
With `COc1ccc(/N=c2\scc(-c3cc4ccccc4oc3=O)n2-n2c(C)nn(-c3ccc(Br)cc3)c2=O)cc1` the IC50 (A549 [3]) was 0.16 to 1.12 µg/mL, the IC50 (K562 [4]) was 0.16 to 1.12 µg/mL (≈ 0.266 to 1.86 µM) and the IC50 (MDA-MB-231 [5]) was 0.16 to 1.12 µg/mL. For the same compound, the IC50 (HeLa [6]) was 0.16 to 1.12 µg/mL (≈ 0.266 to 1.86 µM).
With `O=C(Nc1ccccc1)c1ccc(-n2cc(COc3cc(=O)oc4ccccc34)nn2)cc1` the IC50 (MDA-MB-231 [2]; mda-mb-231) was 0.03 to 91.6 µM.
For `O=c1ccc2ccc(OCCCCCCn3cc(COc4ccc5ccc(=O)oc5c4)nn3)cc2o1`, the IC50 (769-P) was 0.383 to 13.6 µM, the IC50 (HepG2) was 0.383 to 13.6 µM and the IC50 (MDA-MB-231 [5]) was 0.383 to 13.6 µM.
Compound `Cc1cc(-c2cc3ccccc3oc2=O)n(-c2nc(-c3ccc(Br)cc3)cs2)n1` has an IC50 (MCF7 [1]) of 4.03 to 31.5 µM.
`Cc1ccccc1NC(=O)c1ccc(-n2cc(COc3cc(=O)oc4ccccc34)nn2)cc1` gave an IC50 (MDA-MB-231 [2]; mda-mb-231) of 0.03 to 91.6 µM.
In the case of `O=C(Nc1ccccc1Br)c1ccc(-n2cc(COc3cc(=O)oc4ccccc34)nn2)cc1`, the IC50 (MDA-MB-231 [2]; mda-mb-231) is reported as 0.03 to 91.6 µM.
Work on `Cc1ccc(NC(=O)c2ccc(-n3cc(COc4cc(=O)oc5ccccc45)nn3)cc2)c(C)c1` yielded an IC50 (MDA-MB-231 [2]; mda-mb-231) of 0.03 to 91.6 µM.
With `COc1ccc(OC)c(NC(=O)c2ccc(-n3cc(COc4cc(=O)oc5ccccc45)nn3)cc2)c1` the IC50 (MDA-MB-231 [2]; mda-mb-231) was 0.03 to 91.6 µM.
With `COc1ccc(-c2csc(-n3nc(C)cc3-c3cc4cc(Br)ccc4oc3=O)n2)cc1` the IC50 (MCF7 [1]) was 4.03 to 31.5 µM.
For `O=C(O)c1c(-c2cc3cc(Cl)ccc3oc2=O)[nH]c2ccccc12`, the IC50 (MCF7 [1]) was 5.5 to 100 µM.
For `O=c1ccc2ccc(OCCCn3cc(COc4ccc5ccc(=O)oc5c4)nn3)cc2o1`, the IC50 (769-P) was 0.383 to 13.6 µM, the IC50 (HepG2) was 0.383 to 13.6 µM and the IC50 (MDA-MB-231 [5]) was 0.383 to 13.6 µM.
`COc1ccccc1-c1cc(-c2cc3ccccc3oc2=O)nc(Cc2ccc(F)cc2)n1` showed an IC50 (A549 [11]) of 2.15 to 28.6 µM and an IC50 (MDA-MB-231 [2]; Homo sapiens, MDA-MB-231, 24 h) of 2.15 to 28.6 µM.
`Cc1cc(-c2cc3cc(Cl)ccc3oc2=O)n(-c2nc(-c3ccc(Br)cc3)cs2)n1` showed an IC50 (MCF7 [1]) of 4.03 to 31.5 µM.
With `Cc1ccc2oc(=O)cc(C3OC4=C(C(=O)CCC4)C3c3cc(=O)oc4ccc(C)cc34)c2c1` (centres undefined) the IC50 (A549 [3]) was 0.42 to 0.43 µM.
In the case of `O=c1ccc2ccc(OCCCCCCCn3cc(COc4ccc5ccc(=O)oc5c4)nn3)cc2o1`, the IC50 (769-P) is reported as 0.383 to 13.6 µM, the IC50 (HepG2) is reported as 0.383 to 13.6 µM and the IC50 (MDA-MB-231 [5]) is reported as 0.383 to 13.6 µM.
For `Cc1cc(=O)oc2cc(OCc3cn(CCCCCCCCCOc4ccc5ccc(=O)oc5c4)nn3)ccc12`, the IC50 (769-P) was 0.383 to 13.6 µM, the IC50 (HepG2) was 0.383 to 13.6 µM and the IC50 (MDA-MB-231 [5]) was 0.383 to 13.6 µM.
Work on `Cc1cc(=O)oc2cc(OCc3cn(CCCCCCCOc4ccc5ccc(=O)oc5c4)nn3)ccc12` yielded an IC50 (769-P) of 0.383 to 13.6 µM, an IC50 (HepG2) of 0.383 to 13.6 µM and an IC50 (MDA-MB-231 [5]) of 0.383 to 13.6 µM.
For `Cc1cc(=O)oc2cc(OCc3cn(CCOc4ccc5ccc(=O)oc5c4)nn3)ccc12`, the IC50 (769-P) was 0.383 to 13.6 µM, the IC50 (HepG2) was 0.383 to 13.6 µM and the IC50 (MDA-MB-231 [5]) was 0.383 to 13.6 µM.
With `Cc1ccccc1-c1cc(-c2cc3ccccc3oc2=O)nc(Cc2ccc(F)cc2)n1` the IC50 (A549 [11]) was 2.15 to 28.6 µM and the IC50 (MDA-MB-231 [2]; Homo sapiens, MDA-MB-231, 24 h) was 2.15 to 28.6 µM.
`O=C(Nc1ccc(F)c(Cl)c1)c1ccc(-n2cc(COc3cc(=O)oc4ccccc34)nn2)cc1` showed an IC50 (MDA-MB-231 [2]; mda-mb-231) of 0.03 to 91.6 µM.
